# In patent US7670784B2, “β-Benzyloxyaspartic acid derivatives having two substituents on their benzene rings” (Suntory Holdings Limited, priority 2004, dated 2010):
# Columns and labels:
# [1] = tested on: glutamate transporters; conditions: Shimamoto et al., Mol. Pharmacol. 65, 2004; cited from earlier work
# [2] = target: T1, human EAAT2 (Homo sapiens, UniProt P43004); experiment: [14C]glutamate uptake inhibition in human EAAT2 constitutively expressed in MDCK cells; assay type: cell-based; conditions: 1 μM L-[14C]glutamate, 12 minutes incubation
# T1 construct: expressed in transfected cells; host or cells: MDCK (Madin-Darby Canine Kidney) cells
# T1 sequence (P43004 whole entry): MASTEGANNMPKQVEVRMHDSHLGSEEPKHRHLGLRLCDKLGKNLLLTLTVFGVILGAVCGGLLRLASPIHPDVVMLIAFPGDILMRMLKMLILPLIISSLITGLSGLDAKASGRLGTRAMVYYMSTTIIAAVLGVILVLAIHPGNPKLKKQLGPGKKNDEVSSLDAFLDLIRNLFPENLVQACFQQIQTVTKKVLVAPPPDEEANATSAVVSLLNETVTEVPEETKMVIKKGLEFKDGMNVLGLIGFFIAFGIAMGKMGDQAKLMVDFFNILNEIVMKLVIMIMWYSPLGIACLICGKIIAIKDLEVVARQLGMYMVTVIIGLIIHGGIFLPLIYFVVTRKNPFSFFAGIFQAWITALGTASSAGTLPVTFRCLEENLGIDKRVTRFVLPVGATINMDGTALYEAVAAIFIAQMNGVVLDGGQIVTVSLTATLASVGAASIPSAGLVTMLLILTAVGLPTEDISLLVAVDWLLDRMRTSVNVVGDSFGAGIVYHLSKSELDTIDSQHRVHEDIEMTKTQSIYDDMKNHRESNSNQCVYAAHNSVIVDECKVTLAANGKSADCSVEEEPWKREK
# Experimental: (§1) According to the known method (Shimamoto, K. et al., Mol. Pharmacol. 53, 195-201, 1998; Bioorg. Med. Chem. Lett. 10, 2407-2410, 2000), the inhibitory effect against [^14C]glutamate uptake was measured in human EAAT2 or EAAT3 constitutively expressed in MDCK (Madin-Darby Canine Kidney) cells. Glutamate uptake activity was determined as follows: 1 μM L-[^14C]glutamate and a sample at a given concentration were added and incubated for 12 minutes, followed by solubilizing the cells to measure incorporated radioactivity with a liquid scintillator. The amount of uptake was expressed as a percentage, assuming that uptake in the absence of a test compound (buffer alone) was set to 100% and uptake in a sodium-free solution was set to 0%.
# [3] = target: T2, human EAAT3 (Homo sapiens, UniProt P43005); experiment: [14C]glutamate uptake inhibition in human EAAT3 constitutively expressed in MDCK cells; assay type: cell-based; conditions: 1 μM L-[14C]glutamate, 12 minutes incubation
# T2 construct: expressed in transfected cells; host or cells: MDCK (Madin-Darby Canine Kidney) cells
# T2 sequence (P43005 1-524): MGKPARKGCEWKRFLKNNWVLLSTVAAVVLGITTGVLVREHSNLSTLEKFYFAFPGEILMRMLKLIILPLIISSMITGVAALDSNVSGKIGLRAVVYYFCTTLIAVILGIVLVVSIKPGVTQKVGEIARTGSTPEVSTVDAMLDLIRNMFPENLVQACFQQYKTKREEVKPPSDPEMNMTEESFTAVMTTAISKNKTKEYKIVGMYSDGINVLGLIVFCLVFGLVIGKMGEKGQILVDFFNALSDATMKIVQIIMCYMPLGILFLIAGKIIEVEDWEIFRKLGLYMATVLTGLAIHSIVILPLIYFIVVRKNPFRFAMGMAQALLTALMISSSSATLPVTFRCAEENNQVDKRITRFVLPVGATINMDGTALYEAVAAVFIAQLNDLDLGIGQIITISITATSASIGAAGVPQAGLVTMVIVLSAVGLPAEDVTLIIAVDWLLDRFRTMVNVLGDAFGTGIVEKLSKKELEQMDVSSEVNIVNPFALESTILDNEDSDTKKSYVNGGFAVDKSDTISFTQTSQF
# Experimental: as §1
Structure (SMILES),IC50 value for uptake inhibitory activity [1],IC50 [2] [nM],IC50 [3] [nM]
N[C@H](C(=O)O)[C@H](OCc1cccc(NC(=O)c2ccc(C(F)(F)F)cc2)c1)C(=O)O [TFB-TBOA],in the order of nM,–,–
"N[C@H](C(=O)O)[C@H](OCc1cc(NC(=O)c2ccc(C(F)(F)F)cc2)cc(NC(=O)c2ccc(C(F)(F)F)cc2)c1)C(=O)O [Compound 11, (2S,3S)-3-{3,5-bis[4-(trifluoromethyl)benzamido]benzyloxy}aspartic acid]",–,1.3,0.46
"NCCOCCOCCOCCOCC(=O)NCCCCCC(=O)NCCCCCC(=O)Nc1cc(CO[C@H](C(=O)O)[C@H](N)C(=O)O)cc(NC(=O)c2ccc(C(F)(F)F)cc2)c1 [Compound 10, (2S,3S)-3-(3-(6-(6-(2-(2-(2-(2-(2-aminoethoxy)ethoxy)ethoxy)ethoxy)acetamido)hexanamido)hexanamido)-5-(4-(trifluoromethyl)benzamido)benzyloxy)aspartic acid]",–,23,805
"CCC(=O)Nc1cc(CO[C@H](C(=O)O)[C@H](N)C(=O)O)cc(NC(=O)c2ccc(C(F)(F)F)cc2)c1 [Compound 14, (2S,3S)-3-(3-propionylamido-5-[4-(trifluoromethyl)benzamido]benzyloxy)aspartic acid]",–,4.7,112
"N[C@H](C(=O)O)[C@H](OCc1ccccc1)C(=O)O [L-TBOA, L-threo-β-benzyloxyaspartic acid, reference compound]",–,1300,1300
